Measured values reported in US10894817B2, “Fatty acid modified urocortin-2 analogs for the treatment of diabetes and chronic kidney disease” (priority 2016, dated 2021).
Like-named read-outs stand apart in the source and are kept apart here. Starred links: 1 amine or outer side, 2 acyl side, 3 side chain; linkers in the order of their positions; H or OH if unused. Non-standard residues stand in square brackets, D forms with d. Residues, ends and D or L forms follow the SMILES beside them. Groups on a side chain read outwards from the residue. *: point of attachment. C20 diacid = O=C(O)CCCCCCCCCCCCCCCCCCC(=O)*; C18 diacid = O=C(O)CCCCCCCCCCCCCCCCC(=O)*; γGlu = O=C(O)[C@H](CCC(=O)[*:2])N[*:1]; Palmitoyl = CCCCCCCCCCCCCCCC(=O)*; NMeI = CC[C@H](C)[C@H](NC)C(=O)O; AEEA = NCCOCCOCC(=O)O

Molecular target: T1, human CRHR2b (Homo sapiens, UniProt Q13324)
T1 construct: expressed in transfected cells; host or cells: Chinese Hamster Ovary (CHO) cells, transient transfection
T1 sequence (Q13324 1-438 isoform Q13324-2): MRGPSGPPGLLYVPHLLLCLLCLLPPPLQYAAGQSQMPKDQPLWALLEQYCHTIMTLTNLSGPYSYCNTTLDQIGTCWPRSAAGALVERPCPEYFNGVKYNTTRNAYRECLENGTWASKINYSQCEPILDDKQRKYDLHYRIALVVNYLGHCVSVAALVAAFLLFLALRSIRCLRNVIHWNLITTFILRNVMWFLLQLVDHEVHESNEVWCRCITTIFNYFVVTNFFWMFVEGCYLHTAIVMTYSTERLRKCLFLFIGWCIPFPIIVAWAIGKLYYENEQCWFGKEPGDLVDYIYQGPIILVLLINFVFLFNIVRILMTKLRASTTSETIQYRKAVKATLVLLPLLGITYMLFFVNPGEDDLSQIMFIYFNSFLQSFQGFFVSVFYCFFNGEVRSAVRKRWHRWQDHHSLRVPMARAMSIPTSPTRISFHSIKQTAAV
Assay: human CRHR2b cell-based cAMP assay
Method: CRHR agonistic activity is measured in a cell-based cAMP assay. Serial dilutions of the test peptides are made in assay buffer containing Hank's Balanced Salt Solution (HBSS, without phenol red) supplemented with 20 mM HEPES and 0.05% lactalbumin enzymatic hydrolysate (LAH) (“assay buffer”). […] A one to three dilution of the test peptides is used in both assays. Receptor over-expressing Chinese Hamster Ovary (CHO) cell line is used for the human CRHR2b assay. […] AF011406.1). Forty-eight hours after the transfection, the cells are centrifuged to remove the culture media and resuspended in fetal bovine serum containing 5% DMSO. They are cryofrozen and stored in vials in liquid nitrogen (20×10^6 cells/ml/vial). On the day of the assay, cells are thawed and resuspended in cold 30 ml culture media supplemented with 20 mM HEPES. The cells are then centrifuged to remove the media and washed once with HBSS supplemented with 20 mM HEPES. Finally, following the last centrifugation, the cells are resuspended in assay buffer. Thirty-thousand cells are used in the human CRHR2b assay for each treatment. The cells are dispensed into Costar 96-well black polystyrene half area EIA/RIA plates (Corning Incorporated, Corning, N.Y.) followed by the addition of the diluted peptides, each at a volume of 20 μL. The agonist induced cAMP levels are detected using a HTRF cAMP Dynamic 2 kit (CisBio, Bedford, Mass.). After incubation at 37° C. for 30 min, the assay is stopped by cell lysis via the addition of 20 μL of d2-labeled cAMP and followed by 20 μL of cryptate-labeled anti-cAMP antibody, as described by the manufacturer. Cellular cAMP (as a result of agonist stimulation) competes with the d2-labeled cAMP for binding to the antibody. HTRF detection is performed on an Envision plate reader (Perkin Elmer Life and Analytical Sciences, Waltham, Mass.) by measuring ratiometric emission at 620 and 665 nm after excitation at 320 nm. The data are converted to picomoles of cAMP using a standard curve obtained from the same assay performed with varying concentrations of unlabeled cAMP. […] The data are analyzed using a Curve Fitting Tool to calculate ED50. Numeric values shown below in Table 1 represent the mean of multiple runs (number of runs shown in parentheses) following the mean value±SEM.

[1] = cAMP assay, Table 26, compounds of Example 9, read-out: hCRHR2b Average EC50

EC50 [1] [µM]	SMILES	EC50 [µM]
0.00379	CC[C@H](C)[C@H](NC)C(=O)N[C@H](C(=O)N[C@@H](CC(C)C)C(=O)N[C@@H](CO)C(=O)N[C@@H](CC(C)C)C(=O)N[C@@H](CC(=O)O)C(=O)N[C@H](C(=O)N1CCC[C@H]1C(=O)N[C@H](C(=O)NCC(=O)N[C@@H](CC(C)C)C(=O)N[C@@H](CC(C)C)C(=O)N[C@@H](CCC(N)=O)C(=O)N[C@H](C(=O)N[C@@H](CC(C)C)C(=O)N[C@@H](CC(C)C)C(=O)N[C@@H](CCC(=O)O)C(=O)N[C@@H](CCC(N)=O)C(=O)N[C@@H](CCC(=O)O)C(=O)N[C@@H](CCCCN)C(=O)N[C@@H](CCC(N)=O)C(=O)N[C@@H](CCC(=O)O)C(=O)N[C@@H](CCCCN)C(=O)N[C@@H](CCC(=O)O)C(=O)N[C@@H](CCCCN)C(=O)N[C@@H](CCC(N)=O)C(=O)N[C@@H](CCC(N)=O)C(=O)N[C@@H](C)C(=O)N[C@@H](CCCCNC(=O)CC[C@H](NC(=O)CC[C@H](NC(=O)CCCCCCCCCCCCCCCCCCC(=O)O)C(=O)O)C(=O)O)C(=O)N[C@@H](CCC(=O)O)C(=O)N[C@@H](CC(N)=O)C(=O)N[C@@H](C)C(=O)N[C@@H](CCC(=O)O)C(=O)N[C@H](C(=O)N[C@@H](CC(C)C)C(=O)N[C@@H](C)C(=O)N[C@@H](CCC(N)=O)C(=O)N[C@H](C(N)=O)C(C)C)[C@@H](C)CC)[C@@H](C)CC)[C@@H](C)CC)C(C)C)C(C)C [Compound 58] (H-[NMeI]VLSLDVPIGLLQILLEQEKQEKEKQQAK([γGlu-γGlu-C20 diacid])ENAEILAQV-NH2)	
0.0559	CC[C@H](C)[C@H](N)C(=O)N[C@H](C(=O)N[C@@H](CC(C)C)C(=O)N[C@@H](CO)C(=O)N[C@@H](CC(C)C)C(=O)N[C@@H](CC(=O)O)C(=O)N[C@H](C(=O)N1CCC[C@H]1C(=O)N[C@H](C(=O)NCC(=O)N[C@@H](CC(C)C)C(=O)N[C@@H](CC(C)C)C(=O)N[C@@H](CCC(N)=O)C(=O)N[C@@H](CCCCNC(=O)COCCOCCNC(=O)COCCOCCNC(=O)CC[C@H](NC(=O)CC[C@H](NC(=O)CCCCCCCCCCCCCCCCC(=O)O)C(=O)O)C(=O)O)C(=O)N[C@@H](CC(C)C)C(=O)N[C@@H](CC(C)C)C(=O)N[C@@H](CCC(=O)O)C(=O)N[C@@H](CCC(N)=O)C(=O)N[C@@H](CCC(=O)O)C(=O)N[C@@H](CCCCN)C(=O)N[C@@H](CCC(N)=O)C(=O)N[C@@H](CCC(=O)O)C(=O)N[C@@H](CCCCN)C(=O)N[C@@H](CCC(=O)O)C(=O)N[C@@H](CCCCN)C(=O)N[C@@H](CCC(N)=O)C(=O)N[C@@H](CCC(N)=O)C(=O)N[C@@H](C)C(=O)N[C@H](C(=O)N[C@H](C(=O)N[C@@H](CC(N)=O)C(=O)N[C@@H](C)C(=O)N[C@@H](CCC(N)=O)C(=O)N[C@H](C(=O)N[C@@H](CC(C)C)C(=O)N[C@@H](C)C(=O)N[C@@H](Cc1c[nH]cn1)C(=O)N[C@H](C(N)=O)C(C)C)[C@@H](C)CC)[C@@H](C)O)[C@@H](C)O)[C@@H](C)CC)C(C)C)C(C)C [Compound 40] (H-IVLSLDVPIGLLQK([AEEA-AEEA-γGlu-γGlu-C18 diacid])LLEQEKQEKEKQQATTNAQILAHV-NH2)	

The remaining lines, values behind:

SMILES	EC50 [1] [µM]	EC50 [µM]
CC[C@H](C)[C@H](N)C(=O)N[C@H](C(=O)N[C@@H](CC(C)C)C(=O)N[C@@H](CO)C(=O)N[C@@H](CC(C)C)C(=O)N[C@@H](CC(=O)O)C(=O)N[C@H](C(=O)N1CCC[C@H]1C(=O)N[C@H](C(=O)NCC(=O)N[C@@H](CC(C)C)C(=O)N[C@@H](CC(C)C)C(=O)N[C@@H](CCC(N)=O)C(=O)N[C@H](C(=O)N[C@@H](CC(C)C)C(=O)N[C@@H](CC(C)C)C(=O)N[C@@H](CCCCNC(=O)COCCOCCNC(=O)COCCOCCNC(=O)CC[C@H](NC(=O)CC[C@H](NC(=O)CCCCCCCCCCCCCCCCC(=O)O)C(=O)O)C(=O)O)C(=O)N[C@@H](CCC(N)=O)C(=O)N[C@@H](CCC(=O)O)C(=O)N[C@@H](CCCCN)C(=O)N[C@@H](CCC(N)=O)C(=O)N[C@@H](CCC(=O)O)C(=O)N[C@@H](CCCCN)C(=O)N[C@@H](CCC(=O)O)C(=O)N[C@@H](CCCCN)C(=O)N[C@@H](CCC(N)=O)C(=O)N[C@@H](CCC(N)=O)C(=O)N[C@@H](C)C(=O)N[C@H](C(=O)N[C@H](C(=O)N[C@@H](CC(N)=O)C(=O)N[C@@H](C)C(=O)N[C@@H](CCC(N)=O)C(=O)N[C@H](C(=O)N[C@@H](CC(C)C)C(=O)N[C@@H](C)C(=O)N[C@@H](Cc1c[nH]cn1)C(=O)N[C@H](C(N)=O)C(C)C)[C@@H](C)CC)[C@@H](C)O)[C@@H](C)O)[C@@H](C)CC)[C@@H](C)CC)C(C)C)C(C)C [Compound 43] (H-IVLSLDVPIGLLQILLK([AEEA-AEEA-γGlu-γGlu-C18 diacid])QEKQEKEKQQATTNAQILAHV-NH2)		0.0126
CCCCCCCCCCCCCCCC(=O)N[C@@H](CCC(=O)NCCCC[C@H](NC(=O)[C@H](CCC(N)=O)NC(=O)[C@H](CC(C)C)NC(=O)[C@H](CC(C)C)NC(=O)CNC(=O)[C@@H](NC(=O)[C@@H]1CCCN1C(=O)[C@@H](NC(=O)[C@H](CC(=O)O)NC(=O)[C@H](CC(C)C)NC(=O)[C@H](CO)NC(=O)[C@H](CC(C)C)NC(=O)[C@@H](NC(=O)[C@@H](N)[C@@H](C)CC)C(C)C)C(C)C)[C@@H](C)CC)C(=O)N[C@@H](CC(C)C)C(=O)N[C@@H](CC(C)C)C(=O)N[C@@H](CCC(=O)O)C(=O)N[C@@H](CCC(N)=O)C(=O)N[C@@H](CCC(=O)O)C(=O)N[C@@H](CCCCN)C(=O)N[C@@H](CCC(N)=O)C(=O)N[C@@H](CCC(=O)O)C(=O)N[C@@H](CCCCN)C(=O)N[C@@H](CCC(=O)O)C(=O)N[C@@H](CCCCN)C(=O)N[C@@H](CCC(N)=O)C(=O)N[C@@H](CCC(N)=O)C(=O)N[C@@H](C)C(=O)N[C@H](C(=O)N[C@H](C(=O)N[C@@H](CC(N)=O)C(=O)N[C@@H](C)C(=O)N[C@@H](CCCNC(=N)N)C(=O)N[C@H](C(=O)N[C@@H](CC(C)C)C(=O)N[C@@H](C)C(=O)N[C@@H](CCCNC(=N)N)C(=O)N[C@H](C(N)=O)C(C)C)[C@@H](C)CC)[C@@H](C)O)[C@@H](C)O)C(=O)O [Compound 21] (H-IVLSLDVPIGLLQK([γGlu-Palmitoyl])LLEQEKQEKEKQQATTNARILARV-NH2)	0.00525	
CCCCCCCCCCCCCCCC(=O)N[C@@H](CCC(=O)NCCCC[C@H](NC(=O)[C@H](CCC(N)=O)NC(=O)[C@H](CCCCN)NC(=O)[C@H](CCC(=O)O)NC(=O)[C@H](CCC(N)=O)NC(=O)[C@H](CCC(=O)O)NC(=O)[C@H](CC(C)C)NC(=O)[C@H](CC(C)C)NC(=O)[C@@H](NC(=O)[C@H](CCC(N)=O)NC(=O)[C@H](CC(C)C)NC(=O)[C@H](CC(C)C)NC(=O)CNC(=O)[C@@H](NC(=O)[C@@H]1CCCN1C(=O)[C@@H](NC(=O)[C@H](CC(=O)O)NC(=O)[C@H](CC(C)C)NC(=O)[C@H](CO)NC(=O)[C@H](CC(C)C)NC(=O)[C@@H](NC(=O)[C@@H](N)[C@@H](C)CC)C(C)C)C(C)C)[C@@H](C)CC)[C@@H](C)CC)C(=O)N[C@@H](CCCCN)C(=O)N[C@@H](CCC(=O)O)C(=O)N[C@@H](CCCCN)C(=O)N[C@@H](CCC(N)=O)C(=O)N[C@@H](CCC(N)=O)C(=O)N[C@@H](C)C(=O)N[C@H](C(=O)N[C@H](C(=O)N[C@@H](CC(N)=O)C(=O)N[C@@H](C)C(=O)N[C@@H](CCCNC(=N)N)C(=O)N[C@H](C(=O)N[C@@H](CC(C)C)C(=O)N[C@@H](C)C(=O)N[C@@H](CCCNC(=N)N)C(=O)N[C@H](C(N)=O)C(C)C)[C@@H](C)CC)[C@@H](C)O)[C@@H](C)O)C(=O)O [Compound 27] (H-IVLSLDVPIGLLQILLEQEKQK([γGlu-Palmitoyl])KEKQQATTNARILARV-NH2)	0.0315	
